Where a name gives a salt, the structure may show the parent alone. Calls of active or inactive are those of the source. No cut-off for these calls is given here.

Activity, Kd and inhibition data for three compounds are collected here from ChEMBL document CHEMBL1157309, “Sensitivity of cardiac background inward rectifying K+ outward current (IK1) to the alkaloids lepadiformines A, B, and C” (J Nat Prod, 2006).

In assay [1] the test system is Pelophylax lessonae. Description: Inhibition of Kir channel in frog sino-atrial myocytes assessed as blockade of barium and caesium-sensitive inward rectifying potassium outward current at 1.6 uM by whole cell patch clamp method. It is filed as cell-based. Conditions: Cardiac atrium. In general terms: In patch-clamp work, channel activity is measured electrically.

Assay [2] can be described thus: Inhibition of Kir channel in frog sino-atrial myocytes assessed as half-maximal response for blockade of barium and caesium-sensitive inward rectifying potassium outward current by whole cell patch clamp method. It is filed as cell-based, Pelophylax lessonae, Cardiac atrium.
Assay [3] deals with Pelophylax lessonae. Description: Inhibition of Kir channel in frog sino-atrial myocytes assessed as blockade of barium and caesium-sensitive inward rectifying potassium outward current by whole cell patch clamp method. Conditions: Cardiac atrium. In kind it is cell-based.
For assay [4], the system named is Pelophylax lessonae. The assay is described as follows: Inhibition of Kir channel in frog sino-atrial myocytes assessed as blockade of barium and caesium-sensitive inward rectifying potassium outward current potential at 3.3 uM by whole cell patch clamp method. It is filed as cell-based. Conditions: Cardiac atrium.
Assay [5] relates to Pelophylax lessonae. Description: Inhibition of Kir channel in frog sino-atrial myocytes assessed as blockade of barium and caesium-sensitive inward rectifying potassium outward current potential at 2.5 uM by whole cell patch clamp method. It is filed as cell-based. Conditions: Cardiac atrium.
Assay [6] has as its system Pelophylax lessonae. The assay is described as follows: Inhibition of Kir channel in frog sino-atrial myocytes assessed as blockade of barium and caesium-sensitive inward rectifying potassium outward current potential at 4.1 uM by whole cell patch clamp method. In kind it is cell-based. Conditions: Cardiac atrium.

Take `CCCCCC[C@@H]1CC[C@@H]2CCCC[C@]23CC[C@@H](CO)N13` [LEPADIFORMINE A HYDROCHLORIDE]: the result in the assay with Pelophylax lessonae [1] was Active. In addition, in assay [2], the Kd came out at 1420 nM. Moreover, in the assay on Pelophylax lessonae [3], the Activity entry is “Dose-dependent effect”.
Take `CCCC[C@@H]1CC[C@@H]2CCCC[C@]23CCCN13`: the result in the assay on Pelophylax lessonae [4] was inactive. Also, the inhibition in the assay on Pelophylax lessonae [5] worked out at 8.4%.
`CCCC[C@@H]1CC[C@@H]2CCCC[C@]23CC[C@@H](CO)N13` [LEPADIFORMINE B HYDROCHLORIDE]: in assay [2], the Kd was 1560 nM. Further, in the assay with Pelophylax lessonae [6], the outcome was Active. Moreover, in the assay on Pelophylax lessonae [5], the inhibition stood at 54%.

As a reminder, the Kd is the equilibrium constant for the complex coming apart. For orientation: inhibition means the share of the control response that was lost under treatment.
